Results taken from patent US6737383B1, “Herbicidal oxadiazolidines” (priority 1999, dated 2004).

Columns and labels:
Conditions in all cases: Preemergence
soybean = assay: Test B pre/postemergence soybean; assay type: in vivo, Glycine max
Outline: (§1)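 Test chemicals in a non-phytotoxic solvent mixture with surfactant were sprayed preemergence onto planted seeds and postemergence onto plants 2 to 18 cm tall (1- to 4-leaf stage). After twelve to sixteen days in a greenhouse, injury was visually rated against untreated controls from 0 (no effect) to 10 (complete control).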

morningglory = assay: Test B pre/postemergence morningglory; assay type: in vivo, Ipomoea hederacea
Outline: as §1

cocklebur = assay: Test B pre/postemergence cocklebur; assay type: in vivo, Xanthium strumarium
Outline: as §1

corn = assay: Test B pre/postemergence corn; assay type: in vivo, Zea mays
Outline: as §1

wheat = assay: Test B pre/postemergence wheat; assay type: in vivo, Triticum aestivum
Outline: as §1

pigweed = assay: Test B pre/postemergence pigweed; assay type: in vivo, Amaranthus retroflexus
Outline: as §1

crabgrass = assay: Test B pre/postemergence crabgrass; assay type: in vivo, Digitaria sanguinalis
Outline: as §1

surinam grass = assay: Test B pre/postemergence surinam grass; assay type: in vivo, Brachiaria decumbens
Outline: as §1

blackgrass = assay: Test B pre/postemergence blackgrass; assay type: in vivo, Alopecurus myosuroides
Outline: as §1

bedstraw = assay: Test B pre/postemergence bedstraw; assay type: in vivo, Galium aparine
Outline: as §1

wild oat = assay: Test B pre/postemergence wild oat; assay type: in vivo, Avena fatua
Outline: as §1

purple nutsedge = assay: Test B pre/postemergence purple nutsedge; assay type: in vivo, Cyperus rotundus
Outline: as §1

rape = assay: Test B pre/postemergence rape; assay type: in vivo, Brassica napus
Outline: as §1

sugar beet = assay: Test B pre/postemergence sugar beet; assay type: in vivo, Beta vulgaris
Outline: as §1

giant foxtail = assay: Test B pre/postemergence giant foxtail; assay type: in vivo, Setaria faberii
Outline: as §1

velvetleaf = assay: Test B pre/postemergence velvetleaf; assay type: in vivo, Abutilon theophrasti
Outline: as §1

[1] = Rate 62 g/ha, scale of 0 to 10 where 0 is no effect and 10 is complete control
[2] = Rate 125 g/ha, scale of 0 to 10 where 0 is no effect and 10 is complete control
[3] = Rate 250 g/ha, scale 0 (no effect) to 10 (complete control)
[4] = Rate 500 g/ha, scale 0 to 10 (0 no effect, 10 complete control)

Compound: COCC(OC)n1c(=O)on(C(=O)N(c2ccccc2)C(C)C)c1=O (stereo not drawn) [Compound 734]
- Soybean plant response rating (soybean; [1]): 0
- Plant response rating, Soybean (soybean; [2]): 0
- Soybean plant response rating (soybean; [3]): 0
- Soybean plant response rating (soybean; [4]): 7
- Morningglory plant response rating (morningglory; [1]): 2
- Plant response rating, Morningglory (morningglory; [2]): 2
- Morningglory plant response rating (morningglory; [3]): 3
- Morningglory plant response rating (morningglory; [4]): 6
- Cocklebur plant response rating (cocklebur; [1]): 0
- Plant response rating, Cocklebur (cocklebur; [2]): 0
- Cocklebur plant response rating (cocklebur; [3]): 0
- Cocklebur plant response rating (cocklebur; [4]): 0
- Corn plant response rating (corn; [1]): 0
- Plant response rating, Corn (corn; [2]): 5
- Corn plant response rating (corn; [3]): 9
- Corn plant response rating (corn; [4]): 9
- Wheat plant response rating (wheat; [1]): 0
- Plant response rating, Wheat (wheat; [2]): 7
- Wheat plant response rating (wheat; [3]): 8
- Wheat plant response rating (wheat; [4]): 9
- Redroot pigweed plant response rating (pigweed; [1]): 2
- Plant response rating, Redroot pigweed (pigweed; [2]): 7
- Redroot pigweed plant response rating (pigweed; [3]): 8
- Redroot pigweed plant response rating (pigweed; [4]): 8
- Crabgrass plant response rating (crabgrass; [1]): 9
- Plant response rating, Crabgrass (crabgrass; [2]): 9
- Crabgrass plant response rating (crabgrass; [3]): 9
- Crabgrass plant response rating (crabgrass; [4]): 10
- B. signalgrass plant response rating (surinam grass; [1]): 9
- Plant response rating, B. signalgrass (surinam grass; [2]): 9
- B. signalgrass plant response rating (surinam grass; [3]): 9
- B. signalgrass plant response rating (surinam grass; [4]): 9
- Blackgrass plant response rating (blackgrass; [1]): 7
- Plant response rating, Blackgrass (blackgrass; [2]): 9
- Blackgrass plant response rating (blackgrass; [3]): 9
- Blackgrass plant response rating (blackgrass; [4]): 10
- Bedstraw plant response rating (bedstraw; [1]): 0
- Plant response rating, Bedstraw (bedstraw; [2]): 0
- Bedstraw plant response rating (bedstraw; [3]): 0
- Bedstraw plant response rating (bedstraw; [4]): 0
- Wild oats plant response rating (wild oat; [1]): 3
- Plant response rating, Wild oats (wild oat; [2]): 8
- Wild oats plant response rating (wild oat; [3]): 10
- Wild oats plant response rating (wild oat; [4]): 10
- Nutsedge plant response rating (purple nutsedge; [1]): 0
- Plant response rating, Nutsedge (purple nutsedge; [2]): 0
- Nutsedge plant response rating (purple nutsedge; [3]): 0
- Rape plant response rating (rape; [1]): 0
- Plant response rating, Rape (rape; [2]): 2
- Rape plant response rating (rape; [3]): 5
- Rape plant response rating (rape; [4]): 7
- Sugarbeets plant response rating (sugar beet; [1]): 0
- Plant response rating, Sugarbeets (sugar beet; [2]): 2
- Sugarbeets plant response rating (sugar beet; [3]): 5
- Sugarbeets plant response rating (sugar beet; [4]): 8
- Giant foxtail plant response rating (giant foxtail; [1]): 9
- Plant response rating, Giant foxtail (giant foxtail; [2]): 10
- Giant foxtail plant response rating (giant foxtail; [3]): 10
- Giant foxtail plant response rating (giant foxtail; [4]): 10
- Velvetleaf plant response rating (velvetleaf; [1]): 2
- Plant response rating, Velvetleaf (velvetleaf; [2]): 3
- Velvetleaf plant response rating (velvetleaf; [3]): 5
- Velvetleaf plant response rating (velvetleaf; [4]): 7
